# Measurements published in publication PMC10191619, “Bilirubin gates the TRPM2 channel as a direct agonist to exacerbate ischemic brain damage” (Neuron, 2023).
# What was measured:
# [1] = tested on: tMCAO Trpm2−/− mice; experiment: tMCAO ischemia model, infarct volume by TTC staining, Trpm2-/- mice; assay type: in vivo, mouse; details: 24 h after tMCAO
# [2] = target: T1, hTRPM2 K928A/D1069A double mutant (Homo sapiens, UniProt O94759, D1069A/K928A); experiment: Whole-cell patch-clamp, bilirubin-binding cavity double mutant; assay type: cell-based; details: 9 μM extracellular
# T1 construct: expressed in transfected cells; host or cells: HEK293T cells, transient transfection, GFP cDNA co-transfected as a separate marker
# Experimental: (§1) Human embryonic kidney 293 (HEK293) cells with tetracycline-inducible expression of human TRPM2 channel (hTRPM2) were cultured in a mixed medium containing DMEM/ F-12 (Gibco, USA) and 10% fetal bovine serum (Gibco, USA) as well as blasticidin (50 μg/ml, Invivogen, USA) and zeocin (0.4 mg/ml, Invivogen, USA). The expression of hTRPM2 was induced by substituting blasticin and zeocin for tetracycline (1 μg/ml, Sigma, USA) 24-48 hours before use. TRPM2 channel mutants were transiently expressed in HEK293T cells by transfection with using Lipofectamine 3000. Briefly, HEK293T cells were transiently transfected with cDNAs encoding the mutant hTRPM2 channel. The cDNA for GFP was co-transfected as a marker for identification of the transfected cells for electrophysiological experiments 16-24 hours after transfection. […]
# (§2) Coronal cortical slices were transferred into the recording chamber and continuously perfused at room temperature with ACSF oxygenated with 95% O2 and 5% CO2. […] For whole-cell or single channel recordings from transfected HEK-293T cells, the coverslips were placed in a culture dish (35 × 35 mm, Sorfa) containing HEPES based extracellular solution (ECS) and recorded by patch-clamp technique. […] Each coverslip was recorded only once with different drug exposures. […]
# [3] = tested on: cortical pyramidal neurons from D1066A KI mice; experiment: Whole-cell current-clamp, intrinsic excitability in brain slices, D1066A KI; assay type: cell-based, mouse; details: prolonged perfusion time
# [4] = tested on: layer 5 cortical pyramidal neurons from adult Trpm2+/+ mice; experiment: Whole-cell current-clamp, intrinsic excitability in brain slices, Trpm2+/+; assay type: cell-based, mouse
# [5] = tested on: hTRPM2 Ca2+ binding site mutants; experiment: Whole-cell patch-clamp, Ca2+ binding site mutants; assay type: cell-based, human; details: mutations disabling binding sites for Ca2+
# [6] = tested on: cortical neurons in adult Trpm2+/+ brain slices; details: bilirubin, 1 h of incubation, n = 6
# [7] = tested on: tMCAO Trpm2+/+ mice; experiment: tMCAO ischemia model, infarct volume by TTC staining, Trpm2+/+ mice; assay type: in vivo, mouse; details: for infarct volume: 24 h after tMCAO
# [8] = target: T2, hTRPM2 R1433A (Homo sapiens, UniProt O94759, R1433A); experiment: Whole-cell patch-clamp, C-terminal NUDT9-H domain mutant; assay type: cell-based; details: bilirubin
# T2 construct: expressed in transfected cells; host or cells: HEK293T cells, transient transfection, GFP cDNA co-transfected as a separate marker
# Experimental: as §1, §2
# [9] = target: T3, TRPM2-ΔN/ΔC (Homo sapiens, UniProt O94759); experiment: Whole-cell patch-clamp, truncation mutant; assay type: cell-based; details: bilirubin
# T3 construct: expressed in transfected cells; host or cells: HEK293T cells, transient transfection, GFP cDNA co-transfected as a separate marker
# Experimental: as §1, §2
# [10] = Serum and CSF TB / UCB measurement after bilirubin injection and tMCAO; assay type: in vivo, mouse; details: D1066A KI mice, 24 h after tMCAO, n = 9
# Experimental: Trpm2^+/+, Trpm2^-/- and D1066A C57BL/6 mice were anesthetized by intraperitoneal injection of pentobarbital (55 mg/kg) 24 hours before tMCAO operation, and then fixed in the stereotactic setup (RWD Life Science). The skin above the skull from the base of the neck up to in between the eyes was cut open. A hole directly above the right ventricle was made with a grinding drill to allow insertion of the micro syringe into the lateral ventricle (coordinates: 1.1 mm laterally to the right and 0.5 mm posterior of the bregma, 2.5 mm deep). CSF was collected by using the micro injection pump (speed: 0.2 μl/min), after which the syringe was withdrawn, and the skin was sutured. The mice were removed from the stereotactic setup and 50 μl blood was taken through the orbital venous plexus. Mice were then placed on 37 °C heating blanket till they regained consciousness and returned to the cage. 1 or 24 hours after tMCAO, animals were anesthetized using a 2% isoflurane-oxygen mixture. CSF and blood were collected in the same way before sacrifice. All samples were centrifuged at 3000 r/min. Total bilirubin concentration of supernatants was measured with the Bilirubin Reagent Kit (Sigma). Samples were transferred to a 96-plates and mixed with reaction solution before measurements of their absorbance were made at 530 nm 10 minutes later. UCB concentration was measured with UnaG, a bilirubin-inducible fluorescent protein from Japanese eel muscle. For standard calibration curve of fluorescence intensity, a 100 μl reaction mixture containing 50 μl UnaG solution (1 μM) and 50 μl artificial bilirubin solution with concentration gradient (1.4278 μM, 0.7139 μM, 0.3573 μM, 0.1785 μM, 0.0893 μM and 0 μM) was prepared. After 10 minutes of reaction, the fluorescence intensity was detected by microplate reader (Synergy H1M, Bio Tek) with fluorescence filters for excitation and emission wavelengths of 485 and 528 nm, respectively. Serum and CSF samples were diluted 20-fold with PBS and fluorescence intensity was measured. The UCB levels were extrapolated from the standard curve.
# T1 sequence (O94759 whole entry K928A/D1069A): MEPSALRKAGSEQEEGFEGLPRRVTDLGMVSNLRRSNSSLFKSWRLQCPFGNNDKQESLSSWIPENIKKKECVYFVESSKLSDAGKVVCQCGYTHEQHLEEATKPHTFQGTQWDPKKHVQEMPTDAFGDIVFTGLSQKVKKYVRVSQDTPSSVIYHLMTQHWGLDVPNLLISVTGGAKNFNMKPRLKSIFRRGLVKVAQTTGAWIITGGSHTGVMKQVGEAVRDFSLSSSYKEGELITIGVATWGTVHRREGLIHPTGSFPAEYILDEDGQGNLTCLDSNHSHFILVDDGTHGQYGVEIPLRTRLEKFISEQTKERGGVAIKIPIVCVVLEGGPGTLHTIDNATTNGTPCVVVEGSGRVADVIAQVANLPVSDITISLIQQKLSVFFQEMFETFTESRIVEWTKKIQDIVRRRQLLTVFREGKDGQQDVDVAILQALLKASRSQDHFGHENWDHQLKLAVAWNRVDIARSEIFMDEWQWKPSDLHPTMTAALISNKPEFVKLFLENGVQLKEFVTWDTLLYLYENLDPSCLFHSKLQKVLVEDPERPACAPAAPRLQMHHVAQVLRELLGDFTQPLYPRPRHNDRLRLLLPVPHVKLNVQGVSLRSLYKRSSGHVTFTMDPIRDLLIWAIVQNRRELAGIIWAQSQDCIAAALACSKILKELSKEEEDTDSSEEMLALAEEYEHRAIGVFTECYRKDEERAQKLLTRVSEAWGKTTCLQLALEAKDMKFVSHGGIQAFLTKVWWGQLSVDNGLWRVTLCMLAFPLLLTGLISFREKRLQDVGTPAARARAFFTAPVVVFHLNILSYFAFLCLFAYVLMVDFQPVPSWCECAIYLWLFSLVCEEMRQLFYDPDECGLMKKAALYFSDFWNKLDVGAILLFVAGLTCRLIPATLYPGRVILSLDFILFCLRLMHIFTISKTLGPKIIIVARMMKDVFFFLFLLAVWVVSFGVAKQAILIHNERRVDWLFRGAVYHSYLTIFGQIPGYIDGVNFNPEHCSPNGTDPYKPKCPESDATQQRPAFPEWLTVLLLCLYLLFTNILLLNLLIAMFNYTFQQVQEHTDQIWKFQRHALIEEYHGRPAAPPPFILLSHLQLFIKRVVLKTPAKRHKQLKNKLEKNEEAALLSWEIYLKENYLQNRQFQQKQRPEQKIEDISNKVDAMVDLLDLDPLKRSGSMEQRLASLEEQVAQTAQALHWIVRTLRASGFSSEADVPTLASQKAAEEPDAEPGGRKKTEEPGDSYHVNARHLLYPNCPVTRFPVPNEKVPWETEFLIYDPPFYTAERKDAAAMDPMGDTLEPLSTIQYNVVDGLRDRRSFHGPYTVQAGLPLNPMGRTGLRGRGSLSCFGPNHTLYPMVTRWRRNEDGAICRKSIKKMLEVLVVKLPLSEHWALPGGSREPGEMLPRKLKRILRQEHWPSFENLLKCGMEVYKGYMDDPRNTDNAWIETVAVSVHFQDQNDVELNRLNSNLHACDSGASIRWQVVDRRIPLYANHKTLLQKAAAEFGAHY
# T2 sequence (O94759 whole entry R1433A): as the sequence (O94759 whole entry K928A/D1069A) above, with A928K, A1069D, R1433A counted along it
# T3 sequence (O94759 1-1449 isoform O94759-2): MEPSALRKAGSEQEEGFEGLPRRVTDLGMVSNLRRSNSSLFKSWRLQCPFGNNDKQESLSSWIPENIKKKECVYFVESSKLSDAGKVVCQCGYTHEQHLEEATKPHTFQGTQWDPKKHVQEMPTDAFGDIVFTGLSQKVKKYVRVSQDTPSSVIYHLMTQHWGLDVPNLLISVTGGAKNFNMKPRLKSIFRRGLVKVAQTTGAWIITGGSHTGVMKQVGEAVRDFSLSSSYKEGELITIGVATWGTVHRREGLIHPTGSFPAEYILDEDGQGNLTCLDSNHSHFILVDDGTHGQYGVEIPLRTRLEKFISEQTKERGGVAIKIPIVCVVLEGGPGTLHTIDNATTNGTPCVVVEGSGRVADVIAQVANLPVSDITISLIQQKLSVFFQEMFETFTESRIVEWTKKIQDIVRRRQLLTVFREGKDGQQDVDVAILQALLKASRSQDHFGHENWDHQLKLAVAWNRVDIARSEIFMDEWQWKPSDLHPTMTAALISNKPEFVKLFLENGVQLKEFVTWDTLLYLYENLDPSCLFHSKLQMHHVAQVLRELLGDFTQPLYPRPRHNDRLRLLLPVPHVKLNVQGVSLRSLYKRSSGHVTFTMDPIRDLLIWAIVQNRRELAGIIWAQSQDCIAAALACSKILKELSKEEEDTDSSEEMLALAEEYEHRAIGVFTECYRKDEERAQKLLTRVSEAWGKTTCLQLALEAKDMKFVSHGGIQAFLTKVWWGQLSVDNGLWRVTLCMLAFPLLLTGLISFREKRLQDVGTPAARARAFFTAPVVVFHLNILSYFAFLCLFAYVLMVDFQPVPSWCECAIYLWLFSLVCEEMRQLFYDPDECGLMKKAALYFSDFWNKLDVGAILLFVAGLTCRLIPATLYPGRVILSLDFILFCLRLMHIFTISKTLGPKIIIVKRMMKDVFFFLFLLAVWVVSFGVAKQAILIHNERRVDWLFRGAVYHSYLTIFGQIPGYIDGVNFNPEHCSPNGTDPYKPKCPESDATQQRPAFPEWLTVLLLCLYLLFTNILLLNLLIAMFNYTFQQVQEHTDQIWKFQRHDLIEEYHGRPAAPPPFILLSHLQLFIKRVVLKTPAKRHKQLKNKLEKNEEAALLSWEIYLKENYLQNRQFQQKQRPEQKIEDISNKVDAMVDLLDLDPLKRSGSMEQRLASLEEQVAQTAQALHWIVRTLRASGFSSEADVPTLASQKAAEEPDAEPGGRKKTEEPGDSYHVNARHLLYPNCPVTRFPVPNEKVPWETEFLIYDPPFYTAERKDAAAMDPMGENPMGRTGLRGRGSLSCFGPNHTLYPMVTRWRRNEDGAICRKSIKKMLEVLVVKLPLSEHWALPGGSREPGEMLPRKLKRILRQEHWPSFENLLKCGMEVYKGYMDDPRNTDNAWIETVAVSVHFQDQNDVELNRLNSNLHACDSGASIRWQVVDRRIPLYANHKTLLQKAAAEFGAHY
compound,measurement,setting,value
"C=CC1=C(C)/C(=C/c2[nH]c(Cc3[nH]c(/C=C4\NC(=O)C(C)=C4C=C)c(C)c3CCC(=O)O)c(CCC(=O)O)c2C)NC1=O [bilirubin, Bilirubin]",infarct volume,"[1]; Trpm2−/− mice, bilirubin 50 μg/g i.p. 30 min prior to 30 min tMCAO, n = 15",25.69% ± 4.46%
same,infarct volume,"[1]; female Trpm2−/− mice, n = 5",30.63 ± 8.71%
same,infarct volume,"[1]; male Trpm2−/− mice, n = 10",23.22 ± 5.25%
same,activation of mutant TRPM2 currents,[2],completely lost its ability to activate
same,hyperexcitability in cortical pyramidal neurons,[3],did not induce the hyperexcitability
same,excitability of cortical neurons,"[4]; Trpm2+/+ slices, bilirubin for 5 and 20 min, synaptic blockers present",significantly increased
same,spike amplitude,"[4]; Trpm2+/+, 20 min after bilirubin application, 2.5 nA current in 0.3 ms",significantly attenuated
same,activation of TRPM2 currents by bilirubin,[5],did not prevent the activation
same,mortality of cortical neurons,[6],60.84% ± 2.13%
same,infarct volume,"[7]; Trpm2+/+ mice, bilirubin 50 μg/g i.p. 30 min prior to 30 min tMCAO, n = 14",55.31% ± 3.68%
same,"severity of brain damage, Bil group vs Ctrl group",[7]; day 7 after tMCAO,significantly higher
same,infarct volume,"[7]; female Trpm2+/+ mice, n = 4",49.56 ± 7.40%
same,infarct volume,"[7]; male Trpm2+/+ mice, n = 10",57.61 ± 4.24%
same,activation of mutant TRPM2 currents,[8],remained responsive
same,activation of mutant TRPM2 currents,[9],eliminated the activation of the TRPM2 channel by ADPR but not by bilirubin
same,"serum and CSF UCB concentration, Bil group vs Ctrl group",[10],comparable
